Data reported in patent publication US20230266302A1, “SYNTHESIS AND USE OF N-BENZYL SULFONAMIDES” (THE UNIVERSITY OF TULSA, priority 2020, published 2023).

How the values were obtained:
Test in all cases: ATP level assay (CellTiter-Glo), percent of control
Assay type in all cases: cell-based
[1] = test system: H293 (kidney cancer); conditions: two hour incubation; for activity at 100 µM: 2 h, compound alone, control DMSO, read-out: POC (percent of control) H293
[2] = test system: NCI-H196 (lung cancer); conditions: two hour incubation; for activity at 100 µM: NCI-H196, 2 h, compound alone, control DMSO, read-out: POC (percent of control) NCI-H196
[3] = test system: T47D (breast cancer); conditions: two hour incubation; for activity at 100 µM: Homo sapiens, T47D, 2 h, compound alone, control DMSO, read-out: POC (percent of control) T47D
[4] = test system: PC3 (prostate cancer); conditions: two hour incubation; for activity at 100 µM: 2 h, compound alone, control DMSO, read-out: POC (percent of control) PC3
[5] = test system: BxPC3 (pancreatic cancer); conditions: two hour incubation; for activity at 100 µM: Homo sapiens, BXPC-3, 2 h, compound alone, control DMSO, read-out: POC (percent of control) BxPC3
[6] = test system: SkBr3 (breast cancer); conditions: two hour incubation; for activity at 100 µM: Homo sapiens, SK-BR-3, 2 h, compound alone, control DMSO, read-out: POC (percent of control) SkBr3
[7] = test system: MDA-MB (breast cancer); conditions: two hour incubation; for activity at 100 µM: 2 h, compound alone, control DMSO, read-out: POC (percent of control) MDA-MB
[8] = test system: MCF7 (breast cancer); conditions: two hour incubation; for activity at 100 µM: Homo sapiens, MCF7, 2 h, compound alone, control DMSO, read-out: POC (percent of control) MCF7
[9] = test system: HeLa (cervical cancer); conditions: two hour incubation; for activity at 100 µM: Homo sapiens, HeLa, 2 h, compound alone, control DMSO, read-out: POC (percent of control) HeLa
[10] = test system: HDF (normal cells); conditions: two hour incubation; for activity at 100 µM: 2 h, compound alone, control DMSO, read-out: POC (percent of control) HDF
[11] = test system: MCF10A (non-cancerous breast); conditions: two hour incubation; for activity at 100 µM: Homo sapiens, MCF-10A, 2 h, compound alone, control DMSO, read-out: POC (percent of control) MCF10A
[12] = compound 100 uM + 2DG (about 10-20 mM)
[13] = compound 100 uM + rotenone (approximately 1.25 μM)

SMILES	activity at 100 µM [1] [%]	POC (percent of control) H293 [1, 12]	POC (percent of control) H293 [1, 13]	activity at 100 µM [2] [%]	POC (percent of control) NCI-H196 [2, 12]	POC (percent of control) NCI-H196 [2, 13]	activity at 100 µM [3] [%]	POC (percent of control) T47D [3, 12]	POC (percent of control) T47D [3, 13]	activity at 100 µM [4] [%]	POC (percent of control) PC3 [4, 12]	POC (percent of control) PC3 [4, 13]	activity at 100 µM [5] [%]	POC (percent of control) BxPC3 [5, 12]	POC (percent of control) BxPC3 [5, 13]	activity at 100 µM [6] [%]	POC (percent of control) SkBr3 [6, 12]	POC (percent of control) SkBr3 [6, 13]	activity at 100 µM [7] [%]	POC (percent of control) MDA-MB [7, 12]	also measured
Cc1ccc(S(=O)(=O)NCc2nccs2)cc1 [Compound 19, 4-methyl-N-(1,3-thiazol-2-ylmethyl)benzenesulfonamide]	82.2	87.2% of control	79.1% of control	117	107.3% of control	94.3% of control	91.5	87.4% of control	86.7% of control	108	127.1% of control	98.9% of control	96.2	98.4% of control	107.2% of control	119	105.9% of control	108.6% of control	104	89.5% of control	POC (percent of control) MDA-MB [7, 13]: 112% of control; activity at 100 µM [8]: 134%; POC (percent of control) MCF7 [8, 12]: 104% of control; POC (percent of control) MCF7 [8, 13]: 92.1% of control; activity at 100 µM [9]: 104%; POC (percent of control) HeLa [9, 12]: 94.8% of control; POC (percent of control) HeLa [9, 13]: 109.3% of control; activity at 100 µM [10]: 92.5%; POC (percent of control) HDF [10, 12]: 98.9% of control; POC (percent of control) HDF [10, 13]: 87.3% of control; activity at 100 µM [11]: 83.9%; POC (percent of control) MCF10A [11, 12]: 95.8% of control; POC (percent of control) MCF10A [11, 13]: 119.8% of control
COc1ncccc1CNS(=O)(=O)c1ccc(C)cc1 [Compound 12, N-[(2-methoxypyridin-3-yl)methyl]-4-methylbenzenesulfonamide]	94.4	85% of control	74.9% of control	83.5	117% of control	81.8% of control	59.8	58.1% of control	95.2% of control	82.1	89.9% of control	80.3% of control	79.8	57% of control	61% of control	91.6	73.5% of control	85.1% of control	87.2	83.9% of control	POC (percent of control) MDA-MB [7, 13]: 105.7% of control; activity at 100 µM [8]: 97.3%; POC (percent of control) MCF7 [8, 12]: 90.8% of control; POC (percent of control) MCF7 [8, 13]: 92.1% of control; activity at 100 µM [9]: 98%; POC (percent of control) HeLa [9, 12]: 78.5% of control; POC (percent of control) HeLa [9, 13]: 87.6% of control; activity at 100 µM [10]: 77.8%; POC (percent of control) HDF [10, 12]: 90.9% of control; POC (percent of control) HDF [10, 13]: 70.4% of control; activity at 100 µM [11]: 98.6%; POC (percent of control) MCF10A [11, 12]: 88.1% of control; POC (percent of control) MCF10A [11, 13]: 86.1% of control
Cc1cccc2[nH]cc(CNS(=O)(=O)c3ccccc3)c12 [Compound 7, N-[(4-methyl-1H-indol-3-yl)methyl]benzenesulfonamide]	93.2	60.9% of control	65.3% of control	84.9	70.1% of control	77.7% of control	46.5	40.1% of control	66% of control	95	59.4% of control	82% of control	86.3	60.9% of control	79.1% of control	108	76.2% of control	88.2% of control	85.6	81.2% of control	POC (percent of control) MDA-MB [7, 13]: 102.4% of control; activity at 100 µM [8]: 107%; POC (percent of control) MCF7 [8, 12]: 91.6% of control; POC (percent of control) MCF7 [8, 13]: 75.9% of control; activity at 100 µM [9]: 91%; POC (percent of control) HeLa [9, 12]: 70.6% of control; POC (percent of control) HeLa [9, 13]: 79.5% of control; activity at 100 µM [10]: 87.7%; POC (percent of control) HDF [10, 12]: 60.8% of control; POC (percent of control) HDF [10, 13]: 77.9% of control; activity at 100 µM [11]: 66%; POC (percent of control) MCF10A [11, 12]: 64.5% of control; POC (percent of control) MCF10A [11, 13]: 97.9% of control
Cc1ccc(S(=O)(=O)NCc2ccc3c(cnn3C)c2)cc1 [Compound 9, 4-methyl-N-[(1-methyl-1H-indazol-5-yl)methyl]benzenesulfonamide]	83.3	76.6% of control	88.5% of control	93.1	86.1% of control	117.7% of control	50.3	58.9% of control	103.5% of control	90.4	89.3% of control	101.7% of control	114	57.6% of control	118.5% of control	74.1	89.9% of control	115.5% of control	95.6	91.7% of control	POC (percent of control) MDA-MB [7, 13]: 114% of control; activity at 100 µM [8]: 117%; POC (percent of control) MCF7 [8, 12]: 75.8% of control; POC (percent of control) MCF7 [8, 13]: 95.1% of control; activity at 100 µM [9]: 97.3%; POC (percent of control) HeLa [9, 12]: 80.5% of control; POC (percent of control) HeLa [9, 13]: 89.8% of control; activity at 100 µM [10]: 86.4%; POC (percent of control) HDF [10, 12]: 88.5% of control; POC (percent of control) HDF [10, 13]: 107.6% of control; activity at 100 µM [11]: 89.6%; POC (percent of control) MCF10A [11, 12]: 88.3% of control; POC (percent of control) MCF10A [11, 13]: 123.7% of control
